Data taken from patent publication US20220169672A1, “COMPOUNDS FOR TARGETED THERAPIES OF CASTRATION RESISTANT PROSTATE CANCER” (Purdue Research Foundation, priority 2019, published 2022).
Read-outs that look alike come from different tables or passages of the source.

Assays:
[1] = Cytotoxicity in normal prostatic epithelial RWPE-1 cells; conditions: human
Procedure: (§1) To identify initial lead(s), we first tested all ten drugs in vitro in human prostate cancer LNCaP and CRPC C4-2 cells to see their growth inhibition effect.
(§2) The LNCaP, C4-2 & RWPE-1 cell lines were provided by Professor Timothy Ratliff (Purdue University Center for Cancer Research, USA). All these cells were and maintained at 37° C. with 5% CO2 atmosphere in a humidified incubator following American Type Culture Collection (ATCC) protocol. LNCaP cells were grown in RPMI-1640 (Gibco) supplemented with 10% FBS (Atlanta Biologics), 20 mM HEPES and 1% penicillin/streptomycin (Invitrogen). C4-2 cells were grown in 4:1 DMEM/F12-K medium (Gibco) supplemented with 10% FBS (Atlanta Biologics), 1% penicillin/streptomycin (Invitrogen), 3 mg/mL sodium bicarbonate, 5 μg/mL insulin, 1.36 ng/mL triiodothyronine, 5 μg/mL transferrin, 0.25 μg/mL biotin and 25 μg/mL adenine. For normal growth, RWPE-1 cells were maintained in Keratinocyte Serum Free Medium (K-SFM) (Invitrogen) supplemented with 0.05 mg/mL bovine pituitary extract (BPE) and 5 ng/mL epidermal growth factor (EGF). […] For experiments, cells were used from 3 to 12 passages from thawing.
(§3) The cell proliferation experiment was carried out by the ‘Cell Titer-Blue Cell Viability Assay,’ In this assay, approximately 5,000 cells/well were seeded in 100 μL growth media in poly-L-lysine coated 96-well plates. Next day, the cells were treated with additional 100 μL of various concentrations of the test compounds or DMSO-growth media as untreated control for 6 days in a humidified incubator at 37° C. and 5% CO2 atmosphere. 10 μL ‘Cell Titer-Blue Reagent’ was added directly to each well after 6 days and the plates were incubated for 3 h at 37° C. to allow cells to convert resazurin to resorufin, and the fluorescent signal was measured at 590 nm using a multiplate ELISA reader (Bio-Tek Synergy HT plate reader, Bio-Tek, Winooski, Vt.). The percentage of viable cells in a compound-treated sample was calculated by considering the absorbance of the DMSO-growth media treated sample as 100%. Data was analysed and IC50 value was calculated using GraphPad Prism Software. All experimental points were done in triplicate and experiments were repeated at least thrice.
(§4) The cell viability assay was performed using a standard methyl thiazolyldiphenyl tetrazolium bromide (MTT) assay. In this assay, approximately 5,000 cells/well were seeded in 100 μL growth media in poly-L-lysine coated 96-well plates. After 1 day of plating, the cells were treated with additional 100 μL of various concentrations of the test compounds or DMSO-growth media as untreated control for 3 days more in a humidified incubator at 37° C. and 5% CO2 atmosphere. After 3 days, the culture medium was replaced with 100 μL of MTT solution (using 1 mg/ml stock in growth media) per well and further incubated at 37° C. for 3-4 h. To dissolve the formazan crystals formed in each well by mitochondrial reductase from live cells, 100 μL DMSO was added in each well and shaked for 30 min at RT using an orbital shaker. The absorbance of each well was measured at 570 nm using a multiplate ELISA reader (Bio-Tek Synergy HT plate reader, Bio-Tek, Winooski, Vt.). The percentage of viable cells in a compound-treated sample was calculated by considering the absorbance of the DMSO-growth media treated sample as 100%. All experimental points were done in triplicate and experiments were repeated at least thrice.

[2] = system: C4-2 cells; assay: In vitro scratch assay, C4-2 cell migration; format: cell-based, human; conditions: no treatment 6.5 μm/h
Source text: (§5) We evaluated effects of the active leads on the cancer cell migration—as most often, prostate cancer cell metastasizes to bone leading to the advanced prostate cancer. We performed the well developed in vitro scratch assay to measure both LNCaP and C4-2 cell's migration in presence of the treatments of all these active synthetic compounds. We calculated the migration speed based on the distance travelled/h. The LNCaP cells with no treatment migrated at a speed of 4.8 μm/h, whereas, treatment with 1, 2, 3 and 4 led to a slower rate (2.2, 3.5, 2.6 and 3.7 μm/h respectively) of migration; almost half of the migration speed as compared to that of the non-treated cells. The C4-2 cells with no treatment migrated at a speed of 6.5 μm/h whereas, treatment with 1, 2, 3 and 4 led to a slower rate (2.4, 3.3, 3.9 and 2.5 μm/h respectively) of migration (FIGS. 3D-3E). Since migration is the first step towards invasion and metastasis of cancer cells 1, 2, 3 and 4 might as well interfere with the metastasis process and lead 1 was found as the most efficient among these based on the migration speed rate in both the cells.

[3] = system: RWPE-1 cells; assay: Cytotoxicity in normal prostatic epithelial RWPE-1 cells; conditions: read-out: cytotoxicity IC50; RWPE-1 normal cells
Procedure: as §1, §2, §3, §4

[4] = target: T1, androgen receptor (AR) (Homo sapiens, UniProt P10275, T878A); assay: Western blot of AR expression in C4-2 cell lysates; format: cell-based; conditions: C4-2 cells, 1 μM, 24 h, compared to vehicle and other treatments including ABI
T1 construct: we performed western blot analysis of LNCaP and C4-2 cells' lysates after treated with the indicated drugs/compounds; endogenous in cells; host or cells: C4-2
T1 sequence (P10275 whole entry T878A): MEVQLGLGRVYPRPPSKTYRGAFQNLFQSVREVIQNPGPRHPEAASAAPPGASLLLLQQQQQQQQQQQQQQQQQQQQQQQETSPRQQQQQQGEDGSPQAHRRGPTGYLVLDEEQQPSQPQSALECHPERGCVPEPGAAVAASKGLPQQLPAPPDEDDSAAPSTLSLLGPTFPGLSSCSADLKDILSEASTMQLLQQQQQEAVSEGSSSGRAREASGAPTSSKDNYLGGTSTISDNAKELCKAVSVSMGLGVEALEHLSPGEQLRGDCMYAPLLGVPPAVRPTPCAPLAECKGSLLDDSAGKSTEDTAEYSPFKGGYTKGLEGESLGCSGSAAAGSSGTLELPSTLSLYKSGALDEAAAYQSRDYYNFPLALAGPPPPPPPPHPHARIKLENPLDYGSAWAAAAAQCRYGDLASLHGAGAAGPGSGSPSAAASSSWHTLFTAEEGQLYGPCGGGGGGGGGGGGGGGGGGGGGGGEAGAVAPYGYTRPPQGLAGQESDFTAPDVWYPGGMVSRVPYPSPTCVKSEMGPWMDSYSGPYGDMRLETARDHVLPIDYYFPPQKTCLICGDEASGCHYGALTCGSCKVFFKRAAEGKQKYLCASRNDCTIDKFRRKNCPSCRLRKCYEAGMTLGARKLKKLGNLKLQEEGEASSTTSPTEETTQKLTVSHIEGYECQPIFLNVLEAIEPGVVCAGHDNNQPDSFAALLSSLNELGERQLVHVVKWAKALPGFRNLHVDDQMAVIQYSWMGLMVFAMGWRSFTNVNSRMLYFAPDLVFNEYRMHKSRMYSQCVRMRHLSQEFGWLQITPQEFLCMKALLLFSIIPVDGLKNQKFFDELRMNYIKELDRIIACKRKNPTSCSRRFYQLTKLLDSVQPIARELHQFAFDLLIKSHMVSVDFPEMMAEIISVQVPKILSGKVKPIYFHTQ
Procedure: First, 0.5×10^6 cells/well were seeded in 6-well plate coated with 0.01% poly-L-lysine. Next day, cells were treated with 1 μM concentrations of drugs/compounds or 0.01% DMSO-growth media as vehicle control and the treatment was continued for 24 h in a humidified incubator at 37° C. and 5% CO2 atmosphere. Following treatment, cells were washed with cold PBS and lysed in TBSN buffer (20 mmol/L Tris, pH 8.0, 150 mmol/L NaCl, 1.5 mmol/L EDTA, 5 mmol/L EGTA, 0.5% Nonidet P-40, and 0.5 mmol/L Na3VO4) supplemented with 1× protease inhibitor cocktail tablets to obtain cellular lysates. The protein concentration of the whole cell lysate was quantified by Pierce BCA Protein Assay (Thermo Scientific). The lysate was run on 10% SDS-PAGE gel (40 μg of protein per lane) and β-actin (clone 8H10D10, Cell Signaling Technology) was used as a loading control. Proteins were transferred onto PVDF membrane and the nonspecific binding was blocked using 5% milk in PBS-T (0.05% Tween-20 in PBS buffer) for 1 h. […] Protein expression was normalized to β-actin and densitometry was calculated using ImageJ Software.

[5] = system: LuCaP35CR xenografts; assay: LuCaP35CR patient derived xenograft (PDX) mice model
[6] = system: LNCaP cells; assay: In vitro scratch assay, LNCaP cell migration; format: cell-based, human; conditions: no treatment 4.8 μm/h
Source text: as §5

[7] = mouse liver microsomes, 3 μM, 37° C., 60 min
Procedure: In this assay, the lead compounds were incubated with the respective microsomes at 37° C. and the incubated mixture was analyzed by LC-MS/MS to quantify the remaining parent molecule.
All the test compounds were incubated in duplicate at 3 μM concentration with mouse and human liver microsomes at 37° C. The reaction mixture contained microsomal enzyme in 100 mM potassium phosphate buffer of pH 7.4. Warfarin and verapamil were used as negative and positive control in this assay. After 0 min and 60 min incubation, aliquots were removed from each experimental and control reaction and mixed with an equal volume of ice-cold Stop Solution (0.3% acetic acid in acetonitrile). The samples were centrifuged to remove precipitated protein, and the supernatants were analyzed by LC-MS/MS to quantify the remaining parent molecule. Data represents % remaining as compared to the time zero concentration as 100%.

[8] = system: C4-2 cells; assay: Cell proliferation / growth inhibition in CRPC C4-2 cells; format: cell-based, human
Procedure: as §1
We assessed anti-cancer activity of the synthetic molecules in prostate cancer cell lines as well as toxicity of the active molecules in normal human cell line.
as §2, §3

[9] = system: LNCaP cells; assay: Cell proliferation / growth inhibition in LNCaP cells; format: cell-based; conditions: Homo sapiens, read-out: growth inhibition IC50
Procedure: All these cells were and maintained at 37° C. with 5% CO2 atmosphere in a humidified incubator following American Type Culture Collection (ATCC) protocol. LNCaP cells were grown in RPMI-1640 (Gibco) supplemented with 10% FBS (Atlanta Biologics), 20 mM HEPES and 1% penicillin/streptomycin (Invitrogen). […] For experiments, cells were used from 3 to 12 passages from thawing.

[10] = C4-2 cells, read-out: growth inhibition / proliferation IC50
[11] = Homo sapiens, C4-2, read-out: growth inhibition / proliferation IC50
[12] = Homo sapiens, C4-2 cells, read-out: growth inhibition / proliferation IC50

| Structure (SMILES) | migration speed [2] [μm/h] | IC50 [3] [nM] | migration speed [6] [μm/h] | IC50 [8, 10] [nM] | IC50 [1] [nM] | IC50 [8, 12] [nM] | further results |
| --- | --- | --- | --- | --- | --- | --- | --- |
| C[C@]12CC[C@H](O)CC1=CC[C@@H]1[C@@H]2CC[C@]2(C)C(c3cccnc3)=CC[C@@H]12 [ABI, abiraterone, reference compound] |  |  |  |  |  |  | IC50 ([1]; RWPE-1 normal prostatic epithelial cells): 7200 nM |
| C#C[C@@]1(O)CC[C@@H]2[C@H]3[C@@H](CC[C@@]21C)[C@H]1CCC(=O)C=C1C[C@@H]3C [Compound 1] | 2.4 | 54600 | 2.2 | 0.72 |  |  | AR degradation (western blot), in words [4]: degraded AR efficiently; average body weight ([5]; LuCaP35CR mice, over 16 days): did not change the average body weight; tumor growth ([5]; castrate mice bearing LuCaP35CR xenografts, 10 mg/kg, compared to vehicle): suppressed the tumor growth rapidly; metabolic stability compared to ABI [7]: more stable than the current CRPC drug ABI; proliferation IC50 compared to ABI, in words ([8]; C4-2 cells): much less in C4-2 cells than that of ABI |
| C#C[C@]1(O)CC[C@H]2[C@@H]3CCC4=CC(=O)CC[C@]4(C)[C@H]3CC[C@@]21C [Compound 2, Ethisterone] | 3.3 |  | 3.5 |  | 18300 |  | IC50 [8, 11]: 11 nM |
| C#C[C@@]1(O)CC[C@@H]2[C@H]3[C@@H](CC[C@@]21C)[C@H]1CCC(=NO)C=C1C[C@H]3C [Compound 3] | 3.9 |  | 2.6 |  |  | < 100 |  |
| C#C[C@]1(O)CC[C@H]2[C@@H]3CCC4=CC(=NO)CC[C@@H]4[C@H]3CC[C@@]21C [Compound 4] | 2.5 |  | 3.7 |  |  |  |  |
| CC[C@@]1(O)CC[C@@H]2[C@H]3[C@@H](CC[C@@]21C)[C@H]1CCC(=O)CC1C[C@@H]3C (some centres unmarked) [Compound 13] |  | 17800 |  | 3.5 |  |  |  |
| C[C@H]1CC2=CC(=O)CC[C@@H]2[C@@H]2CC[C@@]3(C)[C@H](CC[C@]3(O)C#Cc3ccccc3N)[C@@H]21 [Compound 15] |  | 13500 |  | 4.1 |  |  |  |
| C#C[C@]1(O)CC[C@H]2[C@@H]3CCC4=CC(=O)CC[C@@H]4[C@H]3CC[C@@]21CC [LEV, levonorgestrel, reference compound] |  |  |  |  | 59700 | 41.8 | IC50 ([9]; LNCaP cells): 181 nM |
| C#C[C@]1(O)CC[C@H]2[C@@H]3CCC4=CC(=O)CC[C@@H]4[C@H]3CC[C@@]21C [NOR, norethisterone, reference compound] |  |  |  |  | 86300 | 7.04 | IC50 ([9]; LNCaP cells): 32.5 nM |
| C#C[C@]1(O)CC[C@H]2[C@@H]3[C@H](C)CC4=C(CCC(=O)C4)[C@H]3CC[C@@]21C [TIB, tibolone, reference compound] |  |  |  |  | 23300 |  | IC50 ([9]; LNCaP): 24.9 nM; IC50 [8, 11]: 3.12 nM |
